From patent publication US9108957B2 (MITSUBISHI TANABE PHARMA CORPORATION, priority 2009, dated 2015)

Molecular target: human recombinant TPK1 (Homo sapiens, UniProt P49841)
Test: Inhibitory activity against P-GS1 phosphorylation by TPK1 (Kinase Glo luminescence)
Assay type: biochemical
Settings: 7.5 μM P-GS1, 10 μM ATP, 25° C. for 16 hours, Kinase Glo Reagent luminescent signal
How it was run: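 Human recombinant TPK1 phosphorylated 7.5 μM P-GS1 with 10 μM ATP in 100 mM HEPES-NaOH pH 7.2 with Mg, EGTA, DTT, Tween 20 and 1% DMSO final, for 16 h at 25° C. Remaining ATP was read by Kinase Glo luminescence. IC50 was normalised to no-enzyme (0%) and no-compound (100%) controls.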

Chain of human recombinant TPK1 (P49841 whole entry): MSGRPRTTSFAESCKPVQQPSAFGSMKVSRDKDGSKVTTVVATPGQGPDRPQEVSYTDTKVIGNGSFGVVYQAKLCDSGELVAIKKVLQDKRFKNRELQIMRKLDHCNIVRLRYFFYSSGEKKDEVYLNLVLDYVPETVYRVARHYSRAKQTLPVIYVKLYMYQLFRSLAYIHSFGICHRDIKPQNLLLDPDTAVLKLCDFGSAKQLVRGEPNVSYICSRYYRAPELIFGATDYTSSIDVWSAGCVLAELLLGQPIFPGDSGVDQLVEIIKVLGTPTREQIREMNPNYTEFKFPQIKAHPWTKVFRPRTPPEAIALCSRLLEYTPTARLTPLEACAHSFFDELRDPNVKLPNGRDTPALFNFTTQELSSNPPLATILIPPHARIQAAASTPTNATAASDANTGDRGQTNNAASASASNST

Row | SMILES | IC50
1 | CC1COCCN(c2nc(-c3ccncn3)cc(=O)n2C)C1 (stereo not drawn) [Compound A087, 2-(6-methyl-1,4-oxazepan-4-yl)-3-methyl-6-(pyrimidin-4-yl)pyrimidin-4(3H)-one] | 80.1 nM
2 | CC1COCCN(c2nc(-c3ccncc3)cc(=O)n2C)C1 (stereo not drawn) [Compound A088, 2-(6-methyl-1,4-oxazepan-4-yl)-3-methyl-6-(pyridin-4-yl)pyrimidin-4(3H)-one] | 176 nM
3 | Cn1c(N2CCCO[C@@H](c3ccc(F)cc3)C2)nc(-c2ccncn2)cc1=O [Compound A092, (S)-2-[2-(4-fluorophenyl)-1,4-oxazepan-4-yl]-3-methyl-6-(pyrimidin-4-yl)pyrimidin-4(3H)-one] | 8.3 nM
4 | COc1cccc(C2CCN(c3nc(-c4ccncc4F)cc(=O)n3C)CCO2)c1 (stereo not drawn) [Compound A093, 2-[7-(3-methoxyphenyl)-1,4-oxazepan-4-yl]-6-(3-fluoropyridin-4-yl)-3-methylpyrimidin-4(3H)-one] | 9.65 nM
5 | COc1ccccc1C1CCN(c2nc(-c3ccncc3F)cc(=O)n2C)CCO1 (stereo not drawn) [Compound A094, 2-[7-(2-methoxyphenyl)-1,4-oxazepan-4-yl]-6-(3-fluoropyridin-4-yl)-3-methylpyrimidin-4(3H)-one] | 10.3 nM
6 | COc1ccc(C2CCN(c3nc(-c4ccncc4F)cc(=O)n3C)CCO2)cc1 (stereo not drawn) [Compound A095, 2-[7-(4-methoxyphenyl)-1,4-oxazepan-4-yl]-6-(3-fluoropyridin-4-yl)-3-methylpyrimidin-4(3H)-one] | 10.7 nM
7 | Cn1c(N2CCOC(c3ccc(F)cc3)CC2)nc(-c2ccncn2)cc1=O (stereo not drawn) [Compound A098, 2-[7-(4-fluorophenyl)-1,4-oxazepan-4-yl]-3-methyl-6-(pyrimidin-4-yl)pyrimidin-4(3H)-one] | 13.8 nM
8 | COc1cccc(C2CCN(c3nc(-c4ccncn4)cc(=O)n3C)CCO2)c1 (stereo not drawn) [Compound A101, 2-[7-(3-methoxyphenyl)-1,4-oxazepan-4-yl]-3-methyl-6-(pyrimidin-4-yl)pyrimidin-4(3H)-one] | 15.3 nM
9 | COc1ccccc1C1CCN(c2nc(-c3ccncn3)cc(=O)n2C)CCO1 (stereo not drawn) [Compound A102, 2-[7-(2-methoxyphenyl)-1,4-oxazepan-4-yl]-3-methyl-6-(pyrimidin-4-yl)pyrimidin-4(3H)-one] | 16.3 nM
10 | Cn1c(N2CCOC(c3ccccc3F)CC2)nc(-c2ccncn2)cc1=O (stereo not drawn) [Compound A105, 2-[7-(2-fluorophenyl)-1,4-oxazepan-4-yl]-3-methyl-6-(pyrimidin-4-yl)pyrimidin-4(3H)-one] | 18.7 nM
11 | Cn1c(N2CCOC(c3cccc(F)c3)CC2)nc(-c2ccncn2)cc1=O (stereo not drawn) [Compound A106, 2-[7-(3-fluorophenyl)-1,4-oxazepan-4-yl]-3-methyl-6-(pyrimidin-4-yl)pyrimidin-4(3H)-one] | 20.5 nM
12 | Cn1c(N2CCOC(c3ccc(F)cc3)CC2)nc(-c2ccncc2F)cc1=O (stereo not drawn) [Compound A108, 2-[7-(4-fluorophenyl)-1,4-oxazepan-4-yl]-6-(3-fluoropyridin-4-yl)-3-methylpyrimidin-4(3H)-one] | 24.6 nM
13 | COc1cccc(C2CCN(c3nc(-c4ccncc4)cc(=O)n3C)CCO2)c1 (stereo not drawn) [Compound A109, 2-[7-(3-methoxyphenyl)-1,4-oxazepan-4-yl]-3-methyl-6-(pyridin-4-yl)pyrimidin-4(3H)-one] | 28 nM
14 | Cn1c(N2CCOC(c3ccccc3F)CC2)nc(-c2ccncc2)cc1=O (stereo not drawn) [Compound A110, 2-(7-(2-fluorophenyl)-1,4-oxazepan-4-yl)-3-methyl-6-(pyridin-4-yl)pyrimidin-4(3H)-one] | 29.2 nM
15 | COc1ccccc1C1CCN(c2nc(-c3ccncc3)cc(=O)n2C)CCO1 (stereo not drawn) [Compound A115, 2-(7-(2-methoxyphenyl)-1,4-oxazepan-4-yl)-3-methyl-6-(pyridin-4-yl)pyrimidin-4(3H)-one] | 47.6 nM
16 | COc1ccc(C2CCN(c3nc(-c4ccncn4)cc(=O)n3C)CCO2)cc1 (stereo not drawn) [Compound A117, 2-(7-(4-methoxyphenyl)-1,4-oxazepan-4-yl)-3-methyl-6-(pyrimidin-4-yl)pyrimidin-4(3H)-one] | 54.7 nM
17 | COc1ccc(C2CCN(c3nc(-c4ccncc4)cc(=O)n3C)CCO2)cc1 (stereo not drawn) [Compound A118, 2-(7-(4-methoxyphenyl)-1,4-oxazepan-4-yl)-3-methyl-6-(pyridin-4-yl)pyrimidin-4(3H)-one] | 58.6 nM
18 | Cn1c(N2CCOC(c3ccc(F)cc3)CC2)nc(-c2ccncc2)cc1=O (stereo not drawn) [Compound A123, 2-[7-(4-fluorophenyl)-1,4-oxazepan-4-yl]-3-methyl-6-(pyridin-4-yl)pyrimidin-4(3H)-one] | 153 nM
